In brackets after ≈: the same amount, converted by molar mass.

For this experiment, the system named is E. coli DH5α empty pLBII vector control strain. Nature of the experiment: microbe, parasite or virus in culture. The class given is cell-based, Escherichia coli. As to conditions: Escherichia coli, read-out: Microbiological Activity (MIC in mg/L), E. coli DH5α/pLBII. The method in brief:
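Broth microdilution in cation-supplemented Mueller-Hinton broth used a starting inoculum of 5×10^5 CFU/mL of E. coli DH5α carrying empty pLBII vector. Plates were incubated 16–20 h at 37 °C. MIC was read visually as the lowest concentration showing no growth.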
With `CCN1CCN(C(=O)NC(C(=O)N[C@H]2Cc3cc(F)cc(C(=O)O)c3OB2O)c2csc(N)n2)C(=O)C1=O` (stereo partly drawn) [Example 16, (3R)-3-(2-(2-aminothiazol-4-yl)-2-(4-ethyl-2,3-dioxopiperazine-1-carboxamido)acetamido)-6-fluoro-2-hydroxy-3,4-dihydro-2H-benzo[e][1,2]oxaborinine-8-carboxylic acid], the MIC is 32 to 64 mg/L (≈ 58.4 to 117 µM).

Turning to `CCN1CCN(C(=O)NC(C(=O)N[C@H]2Cc3cccc(C(=O)O)c3OB2O)c2ccc(O)cc2)C(=O)C1=O` (stereo partly drawn) [Example 27, (3R)-3-(2-(4-ethyl-2,3-dioxopiperazine-1-carboxamido)-2-(4-hydroxyphenyl)acetamido)-2-hydroxy-3,4-dihydro-2H-benzo[e][1,2]oxaborinine-8-carboxylic acid], the MIC was in the range of 8 to 16 mg/L (≈ 15.3 to 30.5 µM).

For the compound `CCN1CCN(C(=O)NC(C(=O)N[C@H]2Cc3cccc(C(=O)O)c3OB2O)c2ccc(O)c(O)c2Cl)C(=O)C1=O` (stereo partly drawn) [Example 37, (3R)-3-(2-(2-chloro-3,4-dihydroxyphenyl)-2-(4-ethyl-2,3-dioxopiperazine-1-carboxamido)acetamido)-2-hydroxy-3,4-dihydro-2H-benzo[e][1,2]oxaborinine-8-carboxylic acid], the MIC was in the range of 8 to 16 mg/L (≈ 13.9 to 27.8 µM).

Consider `CCN1CCN(C(=O)NC(C(=O)N[C@H]2Cc3cccc(C(=O)O)c3OB2O)c2cnc(N)s2)C(=O)C1=O` (stereo partly drawn) [Example 51, (3R)-3-(2-(2-aminothiazol-5-yl)-2-(4-ethyl-2,3-dioxopiperazine-1-carboxamido)acetamido)-2-hydroxy-3,4-dihydro-2H-benzo[e][1,2]oxaborinine-8-carboxylic acid], for which the MIC fell in the range of 8 to 16 mg/L (≈ 15.1 to 30.2 µM).

Values taken from patent publication US12173018B2, “Penicillin-binding protein inhibitors” (priority 2018, dated 2024).
